Measurements taken from PubChem BioAssay (NCI).
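48-hour exposure; five concentrations; linearly interpolated endpoints. Abbreviation: GI50, concentration required for 50% inhibition of growth. TGI is the concentration that stops growth completely.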

Assays:
Test in all cases: NCI-60 cell line screen, 48 h; in the data active = GI50 below about 0.43 µM; inactive = the rest
OVCAR-4 ovarian = test system: OVCAR-4 ovarian
NCI-H226 lung = test system: NCI-H226 lung
MOLT-4 leukemia = test system: MOLT-4 leukemia
A498 renal = test system: A498 renal
ACHN renal = test system: ACHN renal
786-0 renal = test system: 786-0 renal
SNB-19 CNS = test system: SNB-19 CNS
LOX IMVI melanoma = test system: LOX IMVI melanoma
M14 melanoma = test system: M14 melanoma
HL-60(TB) leukemia = test system: HL-60(TB) leukemia
MDA-MB-435 = test system: MDA-MB-435
UACC-257 melanoma = test system: UACC-257 melanoma
SK-MEL-28 melanoma = test system: SK-MEL-28 melanoma
CCRF-CEM leukemia = test system: CCRF-CEM leukemia
HCT-116 colon = test system: HCT-116 colon
RXF 393 renal = test system: RXF 393 renal
CAKI-1 renal = test system: CAKI-1 renal
NCI-H460 lung = test system: NCI-H460 lung
SF-268 CNS = test system: SF-268 CNS
MDA-MB-231 breast = test system: MDA-MB-231 breast
EKVX NSCLC = test system: EKVX NSCLC
HCC-2998 colon = test system: HCC-2998 colon
KM12 colon = test system: KM12 colon
BT-549 breast = test system: BT-549 breast
OVCAR-8 ovarian = test system: OVCAR-8 ovarian
DU-145 prostate = test system: DU-145 prostate
HOP-62 NSCLC = test system: HOP-62 NSCLC
A549 NSCLC = test system: A549 NSCLC
OVCAR-5 ovarian = test system: OVCAR-5 ovarian

COc1ccc2c(c1)OCC1c3cc(OC)c4ccccc4c3OC21 (configuration not stated)
7.26 µM: TGI (HCC-2998 colon)
9.61 µM: TGI (HL-60(TB) leukemia)
90.2 µM: TGI (NCI-H226 lung)
82.9 µM: TGI (MDA-MB-231 breast)
7.46 µM: TGI (MDA-MB-435)
44.9 µM: TGI (CAKI-1 renal)
> 100 µM: TGI (OVCAR-4 ovarian) | TGI (MOLT-4 leukemia) | TGI (A498 renal) | TGI (ACHN renal) | TGI (786-0 renal) | TGI (SNB-19 CNS) | TGI (LOX IMVI melanoma) | TGI (M14 melanoma) | TGI (UACC-257 melanoma) | TGI (SK-MEL-28 melanoma) | TGI (CCRF-CEM leukemia) | TGI (HCT-116 colon) | TGI (NCI-H460 lung) | TGI (SF-268 CNS) | TGI (EKVX NSCLC) | TGI (KM12 colon) | TGI (OVCAR-8 ovarian) | TGI (DU-145 prostate) | TGI (HOP-62 NSCLC) | TGI (A549 NSCLC)
46 µM: TGI (RXF 393 renal)
97.2 µM: TGI (BT-549 breast)
inactive: GI50 (OVCAR-4 ovarian) 16.5 µM | GI50 (NCI-H226 lung) 15.6 µM | GI50 (MOLT-4 leukemia) 9.82 µM | GI50 (A498 renal) 25 µM | GI50 (ACHN renal) 27.4 µM | GI50 (786-0 renal) 26.1 µM | GI50 (SNB-19 CNS) 23.9 µM | GI50 (LOX IMVI melanoma) 16.5 µM | GI50 (M14 melanoma) 7.23 µM | GI50 (HL-60(TB) leukemia) 2.61 µM | GI50 (MDA-MB-435) 2.56 µM | GI50 (UACC-257 melanoma) 35.5 µM | GI50 (SK-MEL-28 melanoma) 9.13 µM | GI50 (CCRF-CEM leukemia) 16.2 µM | GI50 (HCT-116 colon) 6.65 µM | GI50 (RXF 393 renal) 9.41 µM | GI50 (CAKI-1 renal) 5.05 µM | GI50 (NCI-H460 lung) 4.44 µM | GI50 (SF-268 CNS) 12.1 µM | GI50 (MDA-MB-231 breast) 8.68 µM | GI50 (EKVX NSCLC) 25.1 µM | GI50 (HCC-2998 colon) 1.98 µM | GI50 (KM12 colon) 4.82 µM | GI50 (BT-549 breast) 11.5 µM | GI50 (OVCAR-8 ovarian) 44.4 µM | GI50 (DU-145 prostate) 18.8 µM | GI50 (HOP-62 NSCLC) 14.7 µM | GI50 (A549 NSCLC) 15.8 µM | GI50 (OVCAR-5 ovarian) 10.2 µM
